How the values were obtained:
YAP/TAZ target genes = assay: RT-qPCR of YAP/TAZ target genes in CD31+ cells of monocrotaline-exposed rats; format: in vivo, rat; conditions: daily BAPN or daily i.p. verteporfin 25 mg/kg
Experimental: (§1) Messenger RNAs were reverse transcribed using the Multiscript RT kit (Life Technologies) to generate cDNA. cDNA was amplified via fluorescently labeled Taqman primer sets using an Applied Biosystems 7900HT Fast Real Time PCR device. To specifically determine the relative expression of the two GLS1 isoforms KGA and GAC, TaqMan gene expression assays Hs01014019_m1 and Hs01022166_m1 were used respectively. Fold-change of RNA species was calculated using the formula (2^−ΔΔCt), normalized to RPLP0 expression.
(§2) As previously reported (8, 11), lobes of lung tissue from a rat were diced with scissors, to which 200 μL of collagenase D solution (Sigma) was added for a final concentration of 2 mg/ml collagenase D in 4.8 mL HEPES buffer (pH=7.4). After incubation for 30 min at 37° C. with automated rotation, 20 μL of DNase I (Sigma, final concentration of 80 U/mL DNase I) was added and incubated on ice for 30 min. The solution was filtered twice by a 70 μm cell strainer (BD Biosciences) to yield a single cell suspension. After two rounds of PBS wash, cell pelleting, and resuspension, the ACK lysing buffer (Gibco) was used to remove erythrocytes. Remained cells were incubated 30 min at 4° C. with a mouse anti-rat-CD31 antibody (BD Pharmigen 555025). Cells were PBS washed twice and incubated 15 min with anti-mouse IgG1 MicroBeads (Miltenyi Biotec) according to the manufacturer protocol. Single CD31-positive cells were then collected using an autoMACS Pro Separator, per the manufacturer's instructions (Miltenyi Biotec). The purity (>95%) of CD31 positive cells was confirmed by flow cytometric analysis by a FACScan flow cytometer (BD Biosciences) after cells labeling with the FITC-conjugated anti-CD31 (ab33858, Abcam).
To induce PH, male Sprague-Dawley rats (10-14 week old) were injected intraperitoneally with 60 mg/kg monocrotaline (Sigma-Aldrich). After two days, rats underwent intraperitoneal injection daily with 25 mg/kg of verteporfin (Active Biochemicals Company, Ltd) solubilized in 5% dimethyl sulfoxide (DMSO, Sigma-Aldrich). […]

GLS1 = GLS1 expression by RT-qPCR in monocrotaline-exposed rats; format: in vivo, rat; conditions: for GLS expression: CD31+ cells of monocrotaline-exposed rats, daily BAPN or daily i.p. verteporfin 25 mg/kg; for GLS1 expression in lungs: monocrotaline-exposed rats, daily BAPN or daily i.p. verteporfin, vs vehicle, RT-qPCR
Experimental: as §1, §2

PAECs = assay: Proliferation of PAECs (cell count, BrdU pulse, PCNA staining); format: cell-based, human; conditions: PAECs, stiff matrix, 48 h after plating
Experimental: A-C) PAECs were plated on soft (1 kPa) or stiff (50 kPa) matrix and exposed to indicated treatments. Apoptosis (A-C) and proliferation (B-C) were quantified 48 h after plating. […] Apoptosis (as reflected by cleaved caspase-3 staining, CC-3+) was increased by serum starvation in both soft and stiff conditions but was not affected by GLS1 inhibition. In all panels, mean expression in control groups (soft matrix) was assigned a fold change of 1, to which relevant samples were compared. Data are expressed as mean±SD (*P<0.05; ** P<0.01, ***P<0.001).
After various indicated treatments, cultured cells were fixed with PBS/PFA 4% for 10 min and permeabilized with PBS/Triton 100×0.1% for 10 min. The cells were then incubated with anti-PCNA (#4912; 1/100; Invitrogen), anti-Ki67 (ab15580; 1/200; Abcam), and/or anti-cleaved caspase-3 (1/200; Cell Signaling) at room temperature for 2 hours. Secondary antibodies coupled with Alexa-594 and/or Alexa-488 (Thermo Scientific) were used at 1/500. Nuclei were counterstained with DAPI (Sigma).
After specified pre-treatment or transfection protocols as indicated, PAECs or PASMCs were plated in triplicate in 6 well plates at 30 000 cells per well. After overnight incubation for cells to adhere, 6 wells were counted to determine initial count at time of treatments (glutamate, aspartate, BPTES, DON or C968). After 2 days, 4 days or 6 days, the contents of the wells were trypsinized and counted, and proliferation rate was calculated.
Exponentially growing cells were plated in the indicated matrix for 48 hours.

PAAFs = assay: Metabolic activation of PAAFs cultivated on stiff matrix; format: cell-based
Description: A-C) Pharmacological inhibition of GLS1 by either BPTES, C968 or CB839 blunted metabolic activation of PAAFs cultivated on stiff matrix as reflected by decreased glutaminolysis (A), glycolysis (B) and aspartate production (C). D-E) Pharmacological inhibition of GLS1 by either BPTES, C968 or CB839 decreased PAAFs dependent ECM remodelling upon stimulation by pro-inflammatory cytokines (EDN1, IL6 or TGF-b). […] G-H) Fibrilar collagen visualization (G) and quantification (H) by picrosirius red staining confirmed a decreased of ECM remodelling by activated PAAF (TGF-b) in presence of GLS1 inhibitors. I-M) PAAFs were cultivated upon indicated treatments. Cells were removed and pulmonary arterial endothelial cells (PAECs) were cultivated on the matrix synthesized by the PAAF. […] Data are expressed as mean±SEM (*P<0.05, § P<0.01, #P<0.001) of at least 3 independent experiments performed in triplicate. Paired samples were compared by 2-tailed Student's t test, while 1-way ANOVA and post-hoc Tukey's tests were used for group comparisons.

For `N#CCCN` [BAPN, β-aminoproprionitrile], the “CTGF and CYR61, YAP/TAZ target genes (YAP1-dependent gene expression)” value (from here on “CTGF and CYR61, YAP/TAZ target genes”) (YAP/TAZ target genes) was “decrease”, the GLS expression (GLS1) was “decrease” and the “GLS1 expression in lungs” value (GLS1) was “decreased”.
In the case of `CN(C)c1ccc(C2Nc3ccc4ccccc4c3C3=C2C(=O)CC(C)(C)C3)cc1Br` (centres unmarked) [C968, 5-(3-Bromo-4-(dimethylamino)phenyl)-2,2-dimethyl-2,3,5,6-tetrahydrobenzo[a]phenanthridin-4(1H)-one], the “proliferation in stiff matrix (PCNA+)” value (PAECs) is reported as “decreased”, the aspartate production (PAAFs) is reported as “decreased” and the glutaminolysis (PAAFs) is reported as “decreased”. For the same compound, the glycolysis (PAAFs) was “decreased” and the “metabolic activation of PAAFs” value (PAAFs) was “blunted”.
In the case of `O=C(Cc1cccc(OC(F)(F)F)c1)Nc1ccc(CCCCc2nnc(NC(=O)Cc3ccccn3)s2)nn1` [CB839], the aspartate production (PAAFs) is reported as “decreased”, the glutaminolysis (PAAFs) is reported as “decreased” and the glycolysis (PAAFs) is reported as “decreased”. For the same compound, the “metabolic activation of PAAFs” value (PAAFs) was “blunted”.
With `C=Cc1c(C)c2cc3nc(cc4[nH]c(cc5nc(cc1[nH]2)C(C)=C5CCC(=O)O)c(CCC(=O)OC)c4C)[C@@]1(C)C3=CC=C(C(=O)OC)[C@H]1C(=O)OC` [Verteporfin, 3-[(23S,24R)-14-ethenyl-5-(3-methoxy-3-oxopropyl)-22,23-bis(methoxycarbonyl)-4,10,15,24-tetramethyl-25,26,27,28-tetraazahexacyclo[16.6.1.1^3,6.1^8,11.1^13,16.0^19,24]octacosa-1,3,5,7,9,11(27),12,14,16,18(25),19,21-dodecaen-9-yl]propanoic acid] the “CTGF and CYR61, YAP/TAZ target genes” value (YAP/TAZ target genes) was “decrease”, the “CTGF and CYR61, YAP/TAZ target genes” value (YAP/TAZ target genes; listed as verteporfin) was “decreased” and the GLS expression (GLS1) was “decrease”. For the same compound, the GLS expression (GLS1; listed as verteporfin) was “improved” and the “GLS1 expression in lungs” value (GLS1) was “decreased”.

Reference: US11672795B2, “Compositions and methods for treating pulmonary vascular disease” (UNIVERSITY OF PITTSBURGH-OF THE COMMONWEALTH SYSTEM OF …, priority 2016, dated 2023)
